Patent US9359367B2, “Tetrahydroquinazolinone derivatives as PARP inhibitors” (Lupin Limited, priority 2012, dated 2016)

What follows are compounds tested against T1, PARP1 (Homo sapiens, UniProt P09874) (assay: PARP1 Biochemical Assay (BPS Bioscience kit, chemiluminescence)). Details: histone-coated plate, biotinilated NAD+, 25° C. for 60 min, luminescence, read-out: PARP 1 inhibition IC50.
T1 construct: purchased BPS Bioscience
How it was run: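 Human PARP1 (25–75 ng/well) with activated DNA was incubated with compound on histone-coated wells. Biotinylated NAD+ was added and the reaction ran 60 min at 25 °C. Ribosylation was detected by streptavidin-HRP chemiluminescence, % inhibition was normalised to enzyme-free and uninhibited controls, and IC50 was fitted from % inhibition versus concentration.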

T1 sequence (P09874 whole entry): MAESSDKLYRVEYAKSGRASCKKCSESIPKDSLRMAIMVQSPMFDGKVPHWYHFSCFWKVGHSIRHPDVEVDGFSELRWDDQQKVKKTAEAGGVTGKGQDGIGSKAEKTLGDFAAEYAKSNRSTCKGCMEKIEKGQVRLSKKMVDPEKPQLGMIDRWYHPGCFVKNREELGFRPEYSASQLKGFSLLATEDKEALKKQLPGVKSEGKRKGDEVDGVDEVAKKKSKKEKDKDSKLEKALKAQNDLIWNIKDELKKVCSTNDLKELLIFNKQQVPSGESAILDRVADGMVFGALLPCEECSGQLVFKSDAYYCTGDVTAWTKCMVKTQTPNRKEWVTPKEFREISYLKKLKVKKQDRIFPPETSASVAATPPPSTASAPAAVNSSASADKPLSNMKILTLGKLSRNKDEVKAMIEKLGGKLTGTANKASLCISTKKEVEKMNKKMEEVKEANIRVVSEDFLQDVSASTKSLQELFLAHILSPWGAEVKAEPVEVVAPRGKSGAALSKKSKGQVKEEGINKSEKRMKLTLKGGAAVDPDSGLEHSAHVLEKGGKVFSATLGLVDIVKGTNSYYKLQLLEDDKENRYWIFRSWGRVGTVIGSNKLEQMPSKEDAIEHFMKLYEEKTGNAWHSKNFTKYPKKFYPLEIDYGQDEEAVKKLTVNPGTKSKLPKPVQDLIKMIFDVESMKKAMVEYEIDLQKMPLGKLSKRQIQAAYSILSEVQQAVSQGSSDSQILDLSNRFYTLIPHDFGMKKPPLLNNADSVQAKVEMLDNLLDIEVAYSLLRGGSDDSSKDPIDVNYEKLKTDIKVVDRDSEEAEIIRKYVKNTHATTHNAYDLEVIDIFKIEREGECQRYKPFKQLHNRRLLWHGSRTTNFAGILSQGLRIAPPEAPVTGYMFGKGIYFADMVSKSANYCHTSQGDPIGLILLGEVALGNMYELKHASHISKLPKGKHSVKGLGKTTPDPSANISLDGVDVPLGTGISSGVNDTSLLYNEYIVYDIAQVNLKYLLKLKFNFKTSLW

| SMILES | IC50 [µM] |
| --- | --- |
| CC(C)(CCc1nc2c(c(=O)[nH]1)CC1(CC2)CC1)N1CCN(c2ccc(F)cc2)CC1 [Compound 30, 2′-(3-(4-(4-fluorophenyl)piperazin-1-yl)-3-methylbutyl)-7′,8′-dihydro-3′H-spiro[cyclopropane-1,6′-quinazolin]-4′(5′H)-one] | 0.001 to 0.5 |
| O=c1[nH]c(CCCN2CCN(c3ccc(Cl)cc3)CC2)nc2c1CCCC21CC1 [Compound 2, 2′-(3-(4-(4-chlorophenyl)piperazin-1-yl)propyl)-6′,7′-dihydro-3′H-spiro[cyclopropane-1,8′-quinazolin]-4′(5′H)-one] | 0.001 to 0.5 |
| O=c1[nH]c([C@H]2CC[C@H](N3CCN(c4cccc(F)c4)CC3)C2)nc2c1CC1(CC2)CC1 [Compound 154, 2′-((1S,3S)-3-(4-(3-fluorophenyl)piperazin-1-yl)cyclopentyl)-7′,8′-dihydro-3′H-spiro[cyclopropane-1,6′-quinazolin]-4′(5′H)-one] | 0.001 to 0.5 |
| O=c1[nH]c(CCCN2CC3CCC(C2)N3c2ccc(F)cc2)nc2c1CC1(CC2)CC1 [Compound 8, 2′-(3-(8-(4-fluorophenyl)-3,8-diazabicyclo[3.2.1]octan-3-yl)propyl)-7′,8′-dihydro-3′H-spiro[cyclopropane-1,6′-quinazolin]-4′(5′H)-one] | 5 to 500 |
| CNC(=O)c1csc(N2CCN([C@H]3C=C(c4nc5c(c(=O)[nH]4)CC4(CC5)CC4)CC3)CC2)n1 [Compound 105, (R)—N-methyl-2-(4-(3-(4′-oxo-4′,5′,7′,8′-tetrahydro-3′H-spiro[cyclopropane-1,6′-quinazolin]-2′-yl)cyclopent-2-en-1-yl)piperazin-1-yl)thiazole-4-carboxamide] | 0.501 to 5 |
| CC1(C)CC(c2nc3c(c(=O)[nH]2)CC2(CC3)CC2)=C[C@H]1N1CCN(c2ccc(F)cc2)CC1 [Compound 70, (R)-2′-(3-(4-(4-fluorophenyl)piperazin-1-yl)-4,4-dimethylcyclopent-1-en-1-yl)-7′,8′-dihydro-3′H-spiro[cyclopropane-1,6′-quinazolin]-4′(5′H)-one] | 5 to 500 |
| O=c1[nH]c(CCCN2CCC(c3ccccc3)CC2)nc2c1CC1(CC2)CC1 [Compound 19, 2′-(3-(4-phenylpiperidin-1-yl)propyl)-7′,8′-dihydro-3′H-spiro[cyclopropane-1,6′-quinazolin]-4′(5′H)-one] | 0.001 to 0.5 |
| O=c1[nH]c(CCCN2CCN(c3ccc(F)cc3)CC2)nc2c1CC1CC1C2 (centres unmarked) [Compound 24, 2-(3-(4-(4-fluorophenyl)piperazin-1-yl)propyl)-5a,6,6a,7-tetrahydro-3H-cyclopropa[g]quinazolin-4(5H)-one] | 0.001 to 0.5 |
| CNC(=O)c1cnc(N2CCN([C@H]3C=C(c4nc5c(c(=O)[nH]4)CC4(CC5)CC4)CC3)CC2)c(F)c1 [Compound 112, (R)-5-fluoro-N-methyl-6-(4-(3-(4′-oxo-4′,5′,7′,8′-tetrahydro-3′H-spiro[cyclopropane-1,6′-quinazolin]-2′-yl)cyclopent-2-en-1-yl)piperazin-1-yl)nicotinamide] | 0.501 to 5 |

More lines, now with the values ahead:

| IC50 [µM] | SMILES |
| --- | --- |
| 0.001 to 0.5 | O=C(NC1CC1)c1ccc(N2CCN(C3C=C(c4nc5c(c(=O)[nH]4)CC4(CC5)CC4)CC3)CC2)cc1 (centres unmarked) [Compound 44, N-cyclopropyl-4-(4-(3-(4′-oxo-4′,5′,7′,8′-tetrahydro-3′H-spiro[cyclopropane-1,6′-quinazolin]-2′-yl)cyclopent-2-en-1-yl)piperazin-1-yl)benzamide] |
| 0.501 to 5 | O=c1[nH]c(C2=C[C@@H](N3CCC(c4ccc(Cl)cc4)CC3)CC2)nc2c1CC1(CC2)CC1 [Compound 55, (S)-2′-(3-(4-(4-chlorophenyl)piperidin-1-yl)cyclopent-1-en-1-yl)-7′,8′-dihydro-3′H-spiro[cyclopropane-1,6′-quinazolin]-4′(5′H)-one] |
| 0.001 to 0.5 | Cc1cc(N2CCN([C@H]3C=C(c4nc5c(c(=O)[nH]4)CC4(CC5)CC4)CC3)CC2)ccc1F [Compound 80, (R)-2′-(3-(4-(4-fluoro-3-methylphenyl)piperazin-1-yl)cyclopent-1-en-1-yl)-7′,8′-dihydro-3′H-spiro[cyclopropane-1,6′-quinazolin]-4′(5′H)-one] |
| 0.001 to 0.5 | O=c1[nH]c(C2=C[C@@H](N3CCN(c4ccc(Cl)cc4)CC3)CC2)nc2c1CC1(CC2)CC1 [Compound 38, (S)-2′-(3-(4-(4-chlorophenyl)piperazin-1-yl)cyclopent-1-en-1-yl)-7′,8′-dihydro-3′H-spiro[cyclopropane-1,6′-quinazolin]-4′(5′H)-one] |
| 0.001 to 0.5 | CNC(=O)c1ccc(N2CCN([C@@H]3C=C(c4nc5c(c(=O)[nH]4)CC4(CC5)CC4)CC3)CC2)cc1 [Compound 53, (S)—N-methyl-4-(4-(3-(4′-oxo-4′,5′,7′,8′-tetrahydro-3′H-spiro[cyclopropane-1,6′-quinazolin]-2′-yl)cyclopent-2-en-1-yl)piperazin-1-yl)benzamide] |
| 0.001 to 0.5 | O=c1[nH]c(C2=C[C@H](N3CCC(c4ccc(F)cc4)CC3)CC2)nc2c1CC1(CC2)CC1 [Compound 75, (R)-2′-(3-(4-(4-fluorophenyl)piperidin-1-yl)cyclopent-1-en-1-yl)-7′,8′-dihydro-3′H-spiro[cyclopropane-1,6′-quinazolin]-4′(5′H)-one] |
| 0.001 to 0.5 | Cc1ccc(C2CCN([C@H]3C=C(c4nc5c(c(=O)[nH]4)CC4(CC5)CC4)CC3)CC2)cc1 [Compound 77, (R)-2′-(3-(4-(p-tolyl)piperidin-1-yl)cyclopent-1-en-1-yl)-7′,8′-dihydro-3′H-spiro[cyclopropane-1,6′-quinazolin]-4′(5′H)-one] |
| 0.001 to 0.5 | O=c1[nH]c(C2=C[C@H](N3CCN(c4ccc(Cl)cc4F)CC3)CC2)nc2c1CC1(CC2)CC1 [Compound 63, (R)-2′-(3-(4-(4-chloro-2-fluorophenyl)piperazin-1-yl)cyclopent-1-en-1-yl)-7′,8′-dihydro-3′H-spiro[cyclopropane-1,6′-quinazolin]-4′(5′H)-one] |
